# Patent US5792799A, “Parenteral delivery of MAO A inhibitors” (Athena Neurosciences, Inc., priority 1996, dated 1998)
# Values joined by “and” are separate entries in the source; they are usually repeats but may differ in a detail not shown here. Identical values can stand only once.
# Legend:
# MAO A [1] = experiment: MAO A activity in mouse striatum, liver and gut after subcutaneous clorgyline (Example 1); format: in vivo, C57BL/6 mice
# Description: All experiments were performed in strict accordance with the National Institutes of Health (NIH) Guide for the Care and Use of Laboratory Animals. C57BL/6 mice were housed under constant temperature (22° C.) and humidity conditions in a room illuminated for 12 hours per day, with food and water freely available. […] Animals were sacrificed five hours after drug administration. Brains were removed, and dissection of the striata was performed within two minutes of cervical dislocation. Tissues were collected in buffer (pH 7.2), sonicated for approximately 10 seconds, and stored at -70° C. Similar procedures were used to collect, homogenize and store samples from the liver and gut of the animals.
# (§1) MAO A and MAO B activity were measured as previously described (Yu and Hertz, J. Neurochem. 39:1492-5 (1982)), using 14C-phenylethylamine and 14C-5-hydroxytryptamine as selective substrates for MAO B and MAO A, respectively. Preliminary experiments were performed to ensure that enzyme activity was linear with respect to time and enzyme concentration, and that no more than 10-20% of the substrate was consumed during the incubation period (data not shown). Protein was measured by the method of Lowry et al. (J. Biol. Chem. 193:265-75 (1951)).
# MAO A [2] = experiment: Comparison of parenteral (s.c.) and oral clorgyline on MAO A activity in striatum, gut and liver (Example 2); format: in vivo, mice; details: for MAO activity in the striatum, % of control values: mouse striatum; for extent of inhibition of intestinal MAO A activity: mouse intestine
# Description: as §1
# MAO A [3] = experiment: Effect of repeated s.c. or oral administration of clorgyline on MAO A activity in striatum, intestine and liver (Example 3); format: in vivo, mice; details: for MAO A inhibition in the liver: single or multiple
# Description: as §1
# MAO A activity was measured and compared in the striatum, intestine and liver.
# [4] = 0.6 mg/kg parenteral (s.c.), 5 h
# [5] = 0.6 mg/kg, s.c. or oral, mouse liver
# [6] = 0.6 mg/kg oral, single administration, 5 h
compound,measurement,setting,value
C#CCN(C)CCCOc1ccc(Cl)cc1Cl [clorgyline],MAO A activity remaining in the gut,"MAO A [1]; 0.6 mg/kg s.c., 5 h after dose, mouse gut",50% and > 50%
same,MAO A activity remaining in the liver,"MAO A [1]; 0.6 mg/kg s.c., 5 h after dose, mouse liver",> 50%
same,inhibition of MAO A activity in the striatum,"MAO A [1]; 0.6 mg/kg s.c., 5 h after dose, mouse striatum",90% and > 90%
same,MAO A inhibition in the gut,"MAO A [1]; 0.6 mg/kg s.c., mouse gut",approximately 50%
same,MAO A inhibition in the liver,"MAO A [1]; 0.6 mg/kg s.c., mouse liver",approximately 50%
same,MAO A activity in the gut,"MAO A [1]; 0.8 mg/kg s.c., 5 h after dose, mouse gut",31%
same,MAO A activity in the liver,"MAO A [1]; 0.8 mg/kg s.c., 5 h after dose, mouse liver",about 50%
same,"MAO activity in the gut, % of control","MAO A [1]; 1 mg/kg s.c., 5 h after dose, mouse gut",27 % of control
same,"MAO activity in the liver, % of control","MAO A [1]; 1 mg/kg s.c., 5 h after dose, mouse liver",51 % of control
same,MAO A inhibition in the striatum,"MAO A [1]; 1 mg/kg s.c., 5 h after dose, mouse striatum",> 90%
same,"MAO activity in the striatum, % of control values","MAO A [2]; 0.6 mg/kg oral gavage, 5 h",40 % of control
same,extent of inhibition of intestinal MAO A activity,"MAO A [2]; 0.6 mg/kg oral, 5 h",89%
same,extent of inhibition of intestinal MAO A activity,MAO A [2]; [4],55%
same,"MAO activity in the striatum, % of control values",MAO A [2]; [4],11 % of control
same,MAO A activity maintained in the gut,"MAO A [2]; 0.6 mg/kg parenteral injection, mouse gut",50%
same,"difference in extent of inhibition of MAO A activity in the liver, oral compared with subcutaneous","MAO A [2]; 0.6 mg/kg, 5 h, mouse liver",No significant difference
same,MAO A activity present in the liver after clorgyline exposure,MAO A [2]; [5],more than 50%
same,"intestine MAO A, % of control activity","MAO A [3]; 0.6 mg/kg oral, multiple administration (five, every 24 h), 5 h after last",~15 % of control
same,"intestine MAO A, % of control activity",MAO A [3]; [6],Approximately 20 % of control
same,striatal MAO A inhibition,MAO A [3]; [6],15%
same,MAO A inhibition in the liver,MAO A [3]; 0.6 mg/kg oral,≤ 25%
same,"striatal MAO A residual activity, % of control","MAO A [3]; 0.6 mg/kg per os, multiple treatments (five, every 24 h), 5 h after last",about 50 % of control
same,"striatal MAO A activity, % of the control value","MAO A [3]; 0.6 mg/kg s.c., five consecutive treatments every 24 h, 5 h after last",2 % of control
same,inhibition of intestinal MAO A,"MAO A [3]; 0.6 mg/kg s.c., injected once, 5 h",50%
same,striatal MAO A inhibition,"MAO A [3]; 0.6 mg/kg s.c., single administration, 5 h",approximately 90%
same,MAO A inhibition in the liver,MAO A [3]; 0.6 mg/kg subcutaneous,≤ 25%
same,"change in extent of MAO inhibition in the liver, single versus multiple treatments",MAO A [3]; [5],no significant changes
